Source: US7064120B2, “Tricyclic pyridyl carboxamides and derivatives thereof tocolytic oxytocin receptor antagonists” (Wyeth, priority 2001, dated 2006)
pIC50: −log10 of the molar value.

Biological target: T1, human oxytocin receptor (Homo sapiens, UniProt P30559)
T1 construct: host or cells: CHO cells, stably transfected (pcDNA3.1 vector)
T1 sequence (P30559 1-389): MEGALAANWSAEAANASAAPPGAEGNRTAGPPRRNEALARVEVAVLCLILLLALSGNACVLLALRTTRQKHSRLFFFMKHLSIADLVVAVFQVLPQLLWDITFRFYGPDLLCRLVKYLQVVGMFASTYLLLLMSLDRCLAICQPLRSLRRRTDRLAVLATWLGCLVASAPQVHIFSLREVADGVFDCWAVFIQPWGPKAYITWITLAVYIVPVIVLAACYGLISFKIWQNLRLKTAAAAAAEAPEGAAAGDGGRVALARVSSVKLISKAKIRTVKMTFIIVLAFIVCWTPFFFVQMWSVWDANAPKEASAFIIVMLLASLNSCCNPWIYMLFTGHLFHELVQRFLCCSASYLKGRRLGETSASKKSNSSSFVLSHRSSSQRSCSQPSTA
Assay: Oxytocin binding in CHO cell membranes expressing human oxytocin receptors ([3H]oxytocin radioligand binding)
Conditions: value in parentheses, read-out: OT (IC50)
Method in brief: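 Values are % inhibition at one concentration or nM IC50 from [3H]oxytocin displacement. Membranes from human oxytocin receptor CHO cells, 25–50 μg protein/well, 60 min at room temperature, pH 7.4 Tris buffer with protease inhibitors; bound label by filtration and scintillation counting.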

pIC50 | Compound
8.41 | Cc1cc(C(=O)N2Cc3ccc(C(=O)N(C)Cc4cccnc4)n3Cc3ccccc32)ccc1-c1ccccc1C(F)(F)F [Example 112, N-Methyl-10-{[2-methyl-2′-trifluoromethyl-[1,1′-biphenyl]-4-yl]carbonyl}-N-(3-pyridinylmethyl)-10,11-dihydro-5H-pyrrolo[2,1-c][1,4]benzodiazepine-3-carboxamide]
7.97 | COc1ccccc1-c1ccc(C(=O)N2Cc3ccc(C(=O)N4CCN(c5ccncc5)CC4)n3Cc3ccccc32)cc1C [Example 113, {10-[(2′-Methoxy-2-methyl-[1,1′-biphenyl]-4-yl)carbonyl]-10,11-dihydro-5H-pyrrolo[2,1-c][1,4]benzodiazepin-3-yl}[4-(4-pyridinyl)-1-piperazinyl]methanone]
